Measurements reported in patent publication US12114661B2, “Synergistically effective herbicide composition comprising metobromuron and clomazone” (BELCHIM CROP PROTECTION NV, priority 2018, dated 2024).

Legend:
[1] = test system: Setaria viridis; test: Example 1 field trial, herbicidal effect, tank mixture; format: in vivo; conditions: 28 DAA
[2] = test system: Solanum nigrum; test: Example 6 field trial, herbicidal effect, ready-to-use formulation; format: in vivo; conditions: 18 DAA
[3] = test system: Veronica persica; test: Example 4 field trial, herbicidal effect, ready-to-use formulation; format: in vivo; conditions: 55 DAA
[4] = test system: Solanum physalifolium; test: Example 5 field trial, herbicidal effect, ready-to-use formulation; format: in vivo; conditions: 38 DAA
[5] = test system: Chenopodium album (CHEAL); test: Example 3 field trial, herbicidal effect, tank mixture; format: in vivo; conditions: 42-56 DAA
[6] = test system: Chenopodium album; test: Example 5 field trial, herbicidal effect, ready-to-use formulation; format: in vivo; conditions: 41 DAA
[7] = test system: Solanum nigrum; test: Example 4 field trial, herbicidal effect, ready-to-use formulation; format: in vivo; conditions: 35 DAA
[8] = test system: Polygonum aviculare; test: Example 5 field trial, herbicidal effect, ready-to-use formulation; format: in vivo; conditions: 38 DAA
[9] = test system: Panonicum ulmi; test: Example 6 field trial, herbicidal effect, ready-to-use formulation; format: in vivo; conditions: CLZ 72 g a.c./ha; 42 DAA
[10] = test system: Convolvolus arvensis; test: Example 4 field trial, herbicidal effect, ready-to-use formulation; format: in vivo; conditions: 44 DAA
[11] = test system: Urtica urens; test: as above; format: in vivo; conditions: 22 DAA
[12] = test system: Hibiscus trionum; test: Example 1 field trial, herbicidal effect, tank mixture; format: in vivo; conditions: 28 DAA
[13] = test system: Amaranthus retroflexus; test: Example 5 field trial, herbicidal effect, ready-to-use formulation; format: in vivo; conditions: 25 DAA
[14] = test system: Veronica sp. (VERSS); test: Example 3 field trial, herbicidal effect, tank mixture; format: in vivo; conditions: 42-56 DAA
[15] = test system: Echinochloa crus galli; test: Example 4 field trial, herbicidal effect, ready-to-use formulation; format: in vivo; conditions: 35 DAA
[16] = test system: Galium aparine; test: Example 5 field trial, herbicidal effect, ready-to-use formulation; format: in vivo; conditions: 25 DAA
[17] = test system: Cypurus; test: Example 4 field trial, herbicidal effect, ready-to-use formulation; format: in vivo; conditions: 35 DAA
[18] = test system: Merculiaris annua; test: Example 5 field trial, herbicidal effect, ready-to-use formulation; format: in vivo; conditions: 41 DAA
[19] = test system: Amaranthus retroflexus; test: Example 1 field trial, herbicidal effect, tank mixture; format: in vivo; conditions: 49 DAA
[20] = test system: Senecio vulgaris (SENVU); test: Example 2 field trial, herbicidal effect, tank mixture; format: in vivo; conditions: 42-56 DAA
[21] = test system: Merculiaris annua (MERAN); test: Example 3 field trial, herbicidal effect, tank mixture; format: in vivo; conditions: 42-56 DAA
[22] = test system: Persicaria maculosa; test: Example 4 field trial, herbicidal effect, ready-to-use formulation; format: in vivo; conditions: 35 DAA
[23] = test system: Amaranthus retroflexus; test: Example 6 field trial, herbicidal effect, ready-to-use formulation; format: in vivo; conditions: 18 DAA
[24] = test system: Merculiaris annua; test: as above; format: in vivo; conditions: 18 DAA
[25] = test system: Convolvolus arvensis; test: Example 1 field trial, herbicidal effect, tank mixture; format: in vivo; conditions: 28 DAA
[26] = test system: Persicaria laphatipholium; test: Example 6 field trial, herbicidal effect, ready-to-use formulation; format: in vivo; conditions: 25 DAA
[27] = test system: Persicaria maculate; test: Example 5 field trial, herbicidal effect, ready-to-use formulation; format: in vivo; conditions: 28 DAA
[28] = test system: Echinochloa; test: Example 1 field trial, herbicidal effect, tank mixture; format: in vivo; conditions: 29 DAA
[29] = test system: Chenopodium album (CHEAL); test: Example 2 field trial, herbicidal effect, tank mixture; format: in vivo; conditions: 42-56 DAA
[30] = Example 6 field trial, herbicidal effect, ready-to-use formulation; format: in vivo, Panonicum ulmi; conditions: MTB 1200 g a.c./ha; 42 DAA

## CC1(C)CON(Cc2ccccc2Cl)C1=O [CLZ, 2-(2-chlorophenyl)methyl-4,4-dimethyl-3-isoxazolidinone]
[1]; CLZ 72 g a.c./ha
  h.e. (herbicidal effect): 86%
[2]; CLZ 72 g a.c./ha
  h.e. (herbicidal effect): 66%
[3]; CLZ 36 g a.c./ha
  h.e. (herbicidal effect): 0%
[4]; CLZ 90 g a.c./ha
  h.e. (herbicidal effect): 61%
[5]; CLZ 54 g a.c./ha
  CLZ h.e.: 46.7%
[5]; CLZ 72 g a.c./ha
  CLZ h.e.: 56.7%
[5]; CLZ 90 g a.c./ha
  CLZ h.e.: 63.3%
[6]; CLZ 90 g a.c./ha
  h.e. (herbicidal effect): 28%
[7]; CLZ 36 g a.c./ha
  h.e. (herbicidal effect): 52%
[8]; CLZ 90 g a.c./ha
  h.e. (herbicidal effect): 78%
[9]
  h.e. (herbicidal effect): 0%
[10]; CLZ 36 g a.c./ha
  h.e. (herbicidal effect): 30%
[11]; CLZ 36 g a.c./ha
  h.e. (herbicidal effect): 0%
[12]; CLZ 72 g a.c./ha
  h.e. (herbicidal effect): 79%
[13]; CLZ 90 g a.c./ha
  h.e. (herbicidal effect): 10%
[14]; CLZ 54 g a.c./ha
  CLZ h.e.: 43.3%
[14]; CLZ 72 g a.c./ha
  CLZ h.e.: 60%
[14]; CLZ 90 g a.c./ha
  CLZ h.e.: 16.7%
[15]; CLZ 36 g a.c./ha
  h.e. (herbicidal effect): 63%
[16]; CLZ 90 g a.c./ha
  h.e. (herbicidal effect): 33%
[17]; CLZ 36 g a.c./ha
  h.e. (herbicidal effect): 67%
[18]; CLZ 90 g a.c./ha
  h.e. (herbicidal effect): 50%
[19]; CLZ 72 g a.c./ha
  h.e. (herbicidal effect): 10%
[20]; CLZ 45 g a.c./ha
  CLZ h.e.: 5%
[20]; CLZ 67.5 g a.c./ha
  CLZ h.e.: 40%
[20]; CLZ 90 g a.c./ha
  CLZ h.e.: 39%
[21]; CLZ 54 g a.c./ha
  CLZ h.e.: 43.3%
[21]; CLZ 72 g a.c./ha
  CLZ h.e.: 50%
[21]; CLZ 90 g a.c./ha
  CLZ h.e.: 23.3%
[22]; CLZ 36 g a.c./ha
  h.e. (herbicidal effect): 28%
[23]; CLZ 72 g a.c./ha
  h.e. (herbicidal effect): 77%
[24]; CLZ 72 g a.c./ha
  h.e. (herbicidal effect): 60%
[25]; CLZ 72 g a.c./ha
  h.e. (herbicidal effect): 46%
[26]; CLZ 72 g a.c./ha
  h.e. (herbicidal effect): 34%
[27]; CLZ 90 g a.c./ha
  h.e. (herbicidal effect): 80%
[28]; CLZ 72 g a.c./ha
  h.e. (herbicidal effect): 57%
[29]; CLZ 45 g a.c./ha
  CLZ h.e.: 6%
[29]; CLZ 67.5 g a.c./ha
  CLZ h.e.: 43%
[29]; CLZ 90 g a.c./ha
  CLZ h.e.: 53%

## CON(C)C(=O)Nc1ccc(Br)cc1 [MTB, 3-(4-bromophenyl)-1-methoxy-1-methylurea]
[1]; MTB 1200 g a.c./ha
  h.e. (herbicidal effect): 72%
[2]; MTB 1200 g a.c./ha
  h.e. (herbicidal effect): 31%
[3]; MTB 400 g a.c./ha
  h.e. (herbicidal effect): 25%
[4]; MTB 1000 g a.c./ha
  h.e. (herbicidal effect): 65%
[5]; MTB 600 g a.c./ha
  MTB h.e.: 69.3%
[5]; MTB 1200 g a.c./ha
  MTB h.e.: 93%
[5]; MTB 1800 g a.c./ha
  MTB h.e.: 98.3%
[6]; MTB 1000 g a.c./ha
  h.e. (herbicidal effect): 75%
[7]; MTB 400 g a.c./ha
  h.e. (herbicidal effect): 76%
[8]; MTB 1000 g a.c./ha
  h.e. (herbicidal effect): 66%
[30]
  h.e. (herbicidal effect): 89%
[10]; MTB 400 g a.c./ha
  h.e. (herbicidal effect): 18%
[11]; MTB 400 g a.c./ha
  h.e. (herbicidal effect): 37%
[12]; MTB 1200 g a.c./ha
  h.e. (herbicidal effect): 81%
[13]; MTB 1000 g a.c./ha
  h.e. (herbicidal effect): 70%
[14]; MTB 600 g a.c./ha
  MTB h.e.: 20%
[14]; MTB 1200 g a.c./ha
  MTB h.e.: 35%
[14]; MTB 1800 g a.c./ha
  MTB h.e.: 97%
[15]; MTB 400 g a.c./ha
  h.e. (herbicidal effect): 68%
[16]; MTB 1000 g a.c./ha
  h.e. (herbicidal effect): 28%
[17]; MTB 400 g a.c./ha
  h.e. (herbicidal effect): 50%
[18]; MTB 1000 g a.c./ha
  h.e. (herbicidal effect): 49%
[19]; MTB 1200 g a.c./ha
  h.e. (herbicidal effect): 50%
[20]; MTB 500 g a.c./ha
  MTB h.e.: 18%
[20]; MTB 1000 g a.c./ha
  MTB h.e.: 34%
[20]; MTB 1500 g a.c./ha
  MTB h.e.: 35%
[21]; MTB 600 g a.c./ha
  MTB h.e.: 10%
[21]; MTB 1200 g a.c./ha
  MTB h.e.: 78.3%
[21]; MTB 1800 g a.c./ha
  MTB h.e.: 91%
[22]; MTB 400 g a.c./ha
  h.e. (herbicidal effect): 79%
[23]; MTB 1200 g a.c./ha
  h.e. (herbicidal effect): 43%
[24]; MTB 1200 g a.c./ha
  h.e. (herbicidal effect): 40%
[25]; MTB 1200 g a.c./ha
  h.e. (herbicidal effect): 83%
[26]; MTB 1200 g a.c./ha
  h.e. (herbicidal effect): 21%
[27]; MTB 1000 g a.c./ha
  h.e. (herbicidal effect): 43%
[28]; MTB 1200 g a.c./ha
  h.e. (herbicidal effect): 35%
[29]; MTB 500 g a.c./ha
  MTB h.e.: 61%
[29]; MTB 1000 g a.c./ha
  MTB h.e.: 69%
[29]; MTB 1500 g a.c./ha
  MTB h.e.: 79%
